Reference: patent publication US5977133A, “Pyridone antibiotic with improved safety profile” (priority 1998, dated 1999)
Structures can show the parent of a compound that is named as a salt.

How the values were obtained:
Format in all cases: cell-based
C. difficile = assay: In vitro MIC, agar dilution; conditions: Clostridioides difficile
S. epidermidis (CiproR) = assay: In vitro MIC, agar dilution; conditions: Staphylococcus epidermidis
P. aeruginosa (CiproR) = assay: In vitro MIC, agar dilution; conditions: Pseudomonas aeruginosa, P. aeruginosa (CiproR), 20 isolates
Shigella spp. = assay: microbe, parasite or virus in culture; conditions: read-out: MIC Range
Enterobacter spp. = assay: In vitro MIC, agar dilution
E. faecium (VanS) = assay: In vitro MIC, agar dilution; conditions: Enterococcus faecium
H. influenzae = assay: In vitro MIC, agar dilution; conditions: Haemophilus influenzae, H. influenzae, 18 isolates
Providencia spp. = assay: In vitro MIC, agar dilution
B. fragilis = assay: In vitro MIC, agar dilution; conditions: Bacteroides fragilis
E. faecium (CiproS) = assay: In vitro MIC, agar dilution; conditions: Enterococcus faecium
Legionella spp. = assay: microbe, parasite or virus in culture; conditions: Legionella
S. epidermidis (CiproS) = assay: In vitro MIC, agar dilution; conditions: Staphylococcus epidermidis
S. aureus (CiproS) = assay: In vitro MIC, agar dilution; conditions: Staphylococcus aureus
E. faecalis (VanS) = assay: In vitro MIC, agar dilution; conditions: Enterococcus faecalis
M. avium = assay: In vitro MIC, agar dilution; conditions: Mycobacterium avium
S. pneumoniae (PenR) = assay: In vitro MIC, agar dilution; conditions: Streptococcus pneumoniae
E. faecium (CiproR) = assay: In vitro MIC, agar dilution; conditions: Enterococcus faecium; E. faecium (CiproR), 2 isolates; read-out: MIC Range
E. coli = assay: In vitro MIC, agar dilution; conditions: Escherichia coli, 25 isolates
Procedure, shortened: (§1)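 MIC, the lowest compound level without growth versus a drug-free BHI control plate, with faint haze or scattered colonies scored as no growth. About 10^4 CFU was replicator-spotted from 1:100 dilutions, or 1:10 for slow-growing strains, and plates were read after ~20–24 h at 35–37 °C.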

Salmonella spp. = assay: In vitro MIC, agar dilution; conditions: 23 isolates
Procedure, shortened: as §1

H. pylori = assay: In vitro MIC, agar dilution; conditions: Helicobacter pylori
Klebsiella spp. = assay: In vitro MIC, agar dilution
S. pneumoniae (CiproR) = assay: In vitro MIC, agar dilution; conditions: Streptococcus pneumoniae, read-out: MIC Range
C. perfringens = assay: microbe, parasite or virus in culture; conditions: Clostridium perfringens
P. aeruginosa (CiproS) = assay: In vitro MIC, agar dilution; conditions: Pseudomonas aeruginosa, P. aeruginosa (CiproS), 24 isolates
M. catarrhalis = assay: In vitro MIC, agar dilution; conditions: Moraxella catarrhalis
P. mirabilis = assay: In vitro MIC, agar dilution; conditions: Proteus mirabilis
C. freundii = assay: In vitro MIC, agar dilution; conditions: Citrobacter freundii
Enterococcus spp. (VanR) = assay: In vitro MIC, agar dilution
M. pneumoniae = assay: In vitro MIC, agar dilution; conditions: Mycoplasmoides pneumoniae; M. pneumoniae, 7 isolates; read-out: MIC Range
S. aureus (CiproR) = assay: In vitro MIC, agar dilution; conditions: Staphylococcus aureus

SMILES: Cc1c(N2C[C@@H](N)C3(CC3)C2)c(F)cn2c(=O)c(C(=O)O)cc(C3CC3)c12 [Example 5, 1-cyclopropyl-8-(7(S)-amino-5-azaspiror2.41heptvl)-7-fluoro-9-methyl4-oxo-4H-quinolizine-3-carboxylic acid hydrochloride]
- MIC90 (C. difficile): 0.25 µg/mL
- MIC (C. difficile; read-out: MIC Range): 0.12 to 0.25 µg/mL
- MIC50 (C. difficile; C. difficile, 10 isolates, read-out: MIC50): 0.25 µg/mL
- MIC90 (S. epidermidis (CiproR)): 0.25 µg/mL
- MIC (S. epidermidis (CiproR); read-out: MIC Range): 0.12 to 1 µg/mL
- MIC50 (S. epidermidis (CiproR); S. epidermidis (CiproR), 11 isolates, read-out: MIC50): 0.25 µg/mL
- MIC50 (P. aeruginosa (CiproR); read-out: MIC50): 8 µg/mL
- MIC90 (P. aeruginosa (CiproR); read-out: MIC90): 16 µg/mL
- MIC (P. aeruginosa (CiproR); read-out: MIC Range): 4 to 16 µg/mL
- MIC (Shigella spp.): 0.001 to 0.008 µg/mL
- MIC90 (Enterobacter spp.; Enterobacter): 0.03 µg/mL
- MIC50 (Enterobacter spp.; Enterobacter spp., 35 isolates, read-out: MIC50): 0.015 µg/mL
- MIC (Enterobacter spp.; Enterobacter spp., 35 isolates, read-out: MIC Range): 0.004 to 0.12 µg/mL
- MIC90 (E. faecium (VanS)): 0.25 µg/mL
- MIC (E. faecium (VanS); read-out: MIC Range): 0.06 to 0.5 µg/mL
- MIC50 (E. faecium (VanS); E. faecium (VanS), 11 isolates, read-out: MIC50): 0.25 µg/mL
- MIC50 (H. influenzae; read-out: MIC50): 0.002 µg/mL
- MIC90 (H. influenzae; read-out: MIC90): 0.008 µg/mL
- MIC (H. influenzae; read-out: MIC Range): 0.001 to 0.008 µg/mL
- MIC90 (Providencia spp.; Providencia): 0.06 µg/mL
- MIC50 (Providencia spp.; Providencia spp., 28 isolates, read-out: MIC50): 0.015 µg/mL
- MIC (Providencia spp.; Providencia spp., 28 isolates, read-out: MIC Range): 0.008 to 0.25 µg/mL
- MIC50 (B. fragilis): 0.03 µg/mL
- MIC90 (B. fragilis): 0.03 µg/mL
- MIC (B. fragilis; B. fragilis, 18 isolates, read-out: MIC Range): 0.015 to 0.06 µg/mL
- MIC90 (E. faecium (CiproS)): 0.5 µg/mL
- MIC (E. faecium (CiproS); read-out: MIC Range): 0.25 to 0.5 µg/mL
- MIC50 (E. faecium (CiproS); E. faecium (CiproS), 16 isolates, read-out: MIC50): 0.5 µg/mL
- MIC50 (Legionella spp.): 0.25 µg/mL
- MIC90 (Legionella spp.): 0.25 µg/mL
- MIC (Legionella spp.; read-out: MIC Range): 0.12 to 0.25 µg/mL
- MIC90 (S. epidermidis (CiproS)): 0.03 µg/mL
- MIC50 (S. epidermidis (CiproS); S. epidermidis (CiproS), 23 isolates, read-out: MIC50): 0.015 µg/mL
- MIC (S. epidermidis (CiproS); S. epidermidis (CiproS), 23 isolates, read-out: MIC Range): 0.004 to 0.03 µg/mL
- MIC90 (S. aureus (CiproS)): 0.015 µg/mL
- MIC50 (S. aureus (CiproS); S. aureus (CiproS), 21 isolates, read-out: MIC50): 0.015 µg/mL
- MIC (S. aureus (CiproS); S. aureus (CiproS), 21 isolates, read-out: MIC Range): 0.008 to 0.03 µg/mL
- MIC90 (E. faecalis (VanS)): 0.25 µg/mL
- MIC (E. faecalis (VanS); read-out: MIC Range): 0.06 to 0.25 µg/mL
- MIC50 (E. faecalis (VanS); E. faecalis (VanS), 17 isolates, read-out: MIC50): 0.12 µg/mL
- MIC (M. avium; read-out: MIC Range): 0.25 to 4 µg/mL
- MIC50 (M. avium; M. avium, 20 isolates, read-out: MIC50): 1 µg/mL
- MIC90 (M. avium; M. avium, 20 isolates, read-out: MIC90): 2 µg/mL
- MIC90 (S. pneumoniae (PenR)): 0.06 µg/mL
- MIC50 (S. pneumoniae (PenR); S. pneumoniae (PenR), 25 isolates, read-out: MIC50): 0.06 µg/mL
- MIC (S. pneumoniae (PenR); S. pneumoniae (PenR), 25 isolates, read-out: MIC Range): 0.03 to 0.06 µg/mL
- MIC (E. faecium (CiproR)): 0.5 to 4 µg/mL
- MIC (E. coli): 0.004 to 0.015 µg/mL
- MIC50 (E. coli; read-out: MIC50): ≤ 0.004 µg/mL
- MIC90 (E. coli; read-out: MIC90): 0.015 µg/mL
- MIC (Salmonella spp.): 0.004 to 0.12 µg/mL
- MIC50 (Salmonella spp.; read-out: MIC50): 0.015 µg/mL
- MIC90 (Salmonella spp.; read-out: MIC90): 0.03 µg/mL
- MIC50 (H. pylori): 0.03 µg/mL
- MIC90 (H. pylori): 0.06 µg/mL
- MIC (H. pylori; H. pylori, 17 isolates, read-out: MIC Range): 0.015 to 0.06 µg/mL
- MIC50 (Klebsiella spp.; Klebsiella): 0.03 µg/mL
- MIC90 (Klebsiella spp.; Klebsiella): 0.06 µg/mL
- MIC (Klebsiella spp.; Klebsiella spp., 29 isolates, read-out: MIC Range): 0.002 to 0.12 µg/mL
- MIC (S. pneumoniae (CiproR)): 0.06 to 0.12 µg/mL
- MIC50 (C. perfringens): 0.06 µg/mL
- MIC90 (C. perfringens; C. perfringens, 13 isolates): 0.12 µg/mL
- MIC (C. perfringens; read-out: MIC Range): 0.06 to 0.12 µg/mL
- MIC50 (P. aeruginosa (CiproS); read-out: MIC50): 0.12 µg/mL
- MIC90 (P. aeruginosa (CiproS); read-out: MIC90): 1 µg/mL
- MIC (P. aeruginosa (CiproS); read-out: MIC Range): 0.06 to 1 µg/mL
- MIC90 (M. catarrhalis): 0.03 µg/mL
- MIC50 (M. catarrhalis; M. catarrhalis, 18 isolates, read-out: MIC50): 0.015 µg/mL
- MIC (M. catarrhalis; M. catarrhalis, 18 isolates, read-out: MIC Range): 0.015 to 0.03 µg/mL
- MIC50 (P. mirabilis): 0.03 µg/mL
- MIC90 (P. mirabilis): 0.06 µg/mL
- MIC (P. mirabilis; read-out: MIC Range): 0.015 to 0.12 µg/mL
- MIC90 (C. freundii): 0.12 µg/mL
- MIC50 (C. freundii; C. freundii, 20 isolates, read-out: MIC50): 0.015 µg/mL
- MIC (C. freundii; C. freundii, 20 isolates, read-out: MIC Range): 0.008 to 0.12 µg/mL
- MIC90 (Enterococcus spp. (VanR); Enterococcus): 0.5 µg/mL
- MIC50 (Enterococcus spp. (VanR); Enterococcus spp. (VanR), 21 isolates, read-out: MIC50): 0.5 µg/mL
- MIC (Enterococcus spp. (VanR); Enterococcus, read-out: MIC Range): 0.25 to 4 µg/mL
- MIC (M. pneumoniae): 0.015 to 0.03 µg/mL
- MIC90 (S. aureus (CiproR)): 0.25 µg/mL
- MIC50 (S. aureus (CiproR); S. aureus (CiproR), 25 isolates, read-out: MIC50): 0.12 µg/mL
- MIC (S. aureus (CiproR); S. aureus (CiproR), 25 isolates, read-out: MIC Range): 0.03 to 0.5 µg/mL
